The values below come from patent US7767665B2, “1,3-benzothiazinone derivatives and use thereof” (Takeda Pharmaceutical Company Limited, priority 2001, dated 2010).

`CC(C)(C)OC(=O)CS(=O)(=O)c1cccc(-c2nc(=O)c3ccccc3s2)n1` [Example 280, tert-Butyl {[6-(4-oxo-4H-1,3-benzothiazin-2-yl)-2-pyridyl]sulfonyl}acetate]: the melting point is 159 to 160 °C.

As to `O=C(O)CS(=O)(=O)c1cccc(-c2nc(=O)c3ccccc3s2)n1` [Example 281, [6-(4-Oxo-4H-1,3-benzothiazin-2-yl)-2-pyridyl]sulfonylacetic acid], the melting point was in the range of 192 to 193.5 °C.

`NC(=O)CSc1cccc(-c2nc(=O)c3ccccc3s2)n1` [Example 282] showed a melting point of 256.7 to 257 °C.

`CSc1nccc(-c2nc(=O)c3ccccc3s2)n1` [Example 284, 2-[2-(Methylthio)-6-pyrimidinyl]-4H-1,3-benzothiazine-4-one]: the melting point was in the range of 223.5 to 224 °C.

Take `C[S+]([O-])c1nccc(-c2nc(=O)c3ccccc3s2)n1` (centres unmarked) [Example 285, 2-[2-(Methylsulfinyl)-6-pyrimidinyl]-4H-1,3-benzothiazine-4-one]: the melting point fell in the range of 250.5 to 252 °C.

The compound `CS(=O)(=O)c1nccc(-c2nc(=O)c3ccccc3s2)n1` [Example 286, 2-[2-(Methylsulfonyl)-6-pyrimidinyl]-4H-1,3-benzothiazine-4-one] yielded a melting point of 269.5 to 270 °C.

The compound `CSc1cncc(-c2nc(=O)c3ccccc3s2)n1` [Example 287, 2-[6-(Methylthio)-2-pyrazinyl]-4H-1,3-benzothiazine-4-one] showed a melting point of 202.4 to 202.9 °C.

`C[S+]([O-])c1cncc(-c2nc(=O)c3ccccc3s2)n1` (centres unmarked) [Example 288, 2-[6-(Methylsulfinyl)-2-pyrazinyl]-4H-1,3-benzothiazine-4-one] registered a melting point of 228.5 to 230.5 °C.

With `CS(=O)(=O)c1cncc(-c2nc(=O)c3ccccc3s2)n1` [Example 289, 2-[6-(Methylsulfonyl)-2-pyrazinyl]-4H-1,3-benzothiazine-4-one], the melting point was 232 to 233 °C.

For `CN(C)c1cncc(-c2nc(=O)c3ccccc3s2)n1` [Example 290, 2-[6-(Dimethylamino)-2-pyrazinyl]-4H-1-benzothiazine-4-one], the melting point fell in the range of 248 to 249 °C.

`CN(CC(=O)OC(C)(C)C)c1cncc(-c2nc(=O)c3ccccc3s2)n1` [Example 291, tert-Butyl {methyl[6-(4-oxo-4H-1,3-benzothiazin-2-yl)-2-pyrazinyl]amino}acetate]: the melting point was 189 to 190.5 °C.

Regarding `CN(CC(=O)O)c1cncc(-c2nc(=O)c3ccccc3s2)n1` [Example 292, {Methyl[6-(4-oxo-1,3-benzothiazin-2-yl)-2-pyrazinyl]amino}acetic acid], the melting point is 283 °C (dec.).

As to `CN(CC(=O)OC(C)(C)C)c1nccc(-c2nc(=O)c3ccccc3s2)n1` [Example 293, tert-Butyl {methyl [6-(4-oxo-4H-1,3-benzothiazin-2-yl)-2-pyrimidinyl]amino}acetate], the melting point lay within 186.5 to 188 °C.

For `CN(CC(=O)O)c1nccc(-c2nc(=O)c3ccccc3s2)n1` [Example 294, {Methyl [6-(4-oxo-4H-1,3-benzothiazin-2-yl)-2-pyrimidinyl]amino}acetic acid], the melting point is 215 °C (dec.).

As for `CC(C)(C)OC(=O)CNc1nccc(-c2nc(=O)c3ccccc3s2)n1` [Example 295, tert-Butyl {[6-(4-oxo-4H-1,3-benzothiazin-2-yl)-2-pyrimidinyl]amino}acetate], the melting point is 247 to 248 °C.

Compound `O=C(O)CNc1nccc(-c2nc(=O)c3ccccc3s2)n1` [Example 296, {[6-(4-Oxo-4H-1,3-benzothiazin-2-yl)-2-pyrimidinyl]amino}acetic acid] gave a melting point of 283 to 284 °C.

For the compound `CN(C)CCSc1cncc(-c2nc(=O)c3ccccc3s2)n1` [Example 297], the melting point was 160.5 °C (dec.).

For `CSc1ccnc(-c2nc(=O)c3ccccc3s2)c1` [Example 298, 2-[4-(Methylthio)-2-pyridyl]-4H-1,3-benzothiazine-4-one], the melting point is 213 to 214 °C.

As for `C[S+]([O-])c1ccnc(-c2nc(=O)c3ccccc3s2)c1` (centres unmarked) [Example 299, 2-[4-(Methylsulfinyl)-2-pyridyl]-4H-1,3-benzothiazine-4-one], the melting point fell in the range of 205 to 206 °C.

Regarding `CS(=O)(=O)c1ccnc(-c2nc(=O)c3ccccc3s2)c1` [Example 300, 2-[4-(Methylsulfonyl)-2-pyridyl]-4H-1,3-benzothiazine-4-one], the melting point fell in the range of 300 to 301 °C.

For the compound `CC(=O)OCCCc1cccc(-c2nc(=O)c3ccccc3s2)n1` [Example 301, 3-[6-(4-Oxo-4H-1,3-benzothiazin-2-yl)-2-pyridyl]propyl acetate], the melting point lay within 141.3 to 141.6 °C.

`O=c1nc(-c2cccc(CCCO)n2)sc2ccccc12` [Example 302, 2-[6-(3-Hydroxypropyl)-2-pyridyl]-4H-1,3-benzothiazine-4-one] returned a melting point of 145.5 to 146 °C.

For the compound `CCOC(=O)CCCCc1cccc(-c2nc(=O)c3ccccc3s2)n1` [Example 303, Ethyl 5-[6-(4-oxo-4H-1,3-benzothiazin-2-yl)-2-pyridyl]valerate], the melting point was 87 to 88 °C.

`O=C(O)CCCCc1cccc(-c2nc(=O)c3ccccc3s2)n1` [Example 304, 5-[6-(4-Oxo-4H-1,3-benzothiazin-2-yl)-2-pyridyl]valeric acid] yielded a melting point of 161.9 to 162.3 °C.

`O=c1nc(-c2cccc(CCc3nnn[nH]3)n2)sc2ccccc12` [Example 305, 2-{6-[2-(1H-1,2,3,4-tetrazol-5-yl)ethyl]-2-pyridyl}-4H-1,3-benzothiazine-4-one]: the melting point was in the range of 156.6 to 157 °C.

`N#CCCc1cccc(-c2nc(=O)c3ccccc3s2)n1` [Example 306, 3-[6-(4-Oxo-4H-1,3-benzothiazin-2-yl)-2-pyridyl]propionitrile] yielded a melting point of 156.6 to 157 °C.

Compound `O=C(O)CCCCCCc1cccc(-c2nc(=O)c3ccccc3s2)n1` [Example 307, 7-[6-(4-Oxo-4H-1,3-benzothiazin-2-yl)-2-pyridyl]heptanoic acid] gave a melting point of 148.6 to 150.6 °C.

With `O=C(O)CCc1ccnc(-c2nc(=O)c3ccccc3s2)c1` [Example 308, 3-[2-(4-Oxo-4H-1,3-benzothiazin-2-yl)-4-pyridyl]propionic acid], the melting point lay within 215.3 to 215.9 °C.

The compound `CC(C)(C)OC(=O)CCc1ccnc(-c2nc(=O)c3ccccc3s2)c1` [Example 309, tert-butyl 3-[2-(4-oxo-4H-1,3-benzothiazin-2-yl)-4-pyridyl]propionate] showed a melting point of 135.8 to 136.7 °C.

Compound `O=C(O)/C=C/c1ccnc(-c2nc(=O)c3ccccc3s2)c1` [Example 310, (E)-3-[2-(4-Oxo-4H-1,3-benzothiazin-2-yl)-4-pyridyl]acrylic acid] gave a melting point of 284.3 to 285 °C.

`CC(C)(C)OC(=O)/C=C/c1ccnc(-c2nc(=O)c3ccccc3s2)c1` [Example 311, tert-Butyl (E)-3-[2-(4-oxo-4H-1,3-benzothiazin-2-yl)-4-pyridyl]acrylate] gave a melting point of 196 to 196.7 °C.

Compound `O=C(O)CNC(=O)CCc1cccc(-c2nc(=O)c3ccccc3s2)n1` [Example 312, ({3-[6-(4-Oxo-4H-1,3-benzothiazin-2-yl)-2-pyridyl]propanoyl}amino)acetic acid] yielded a melting point of 219.2 to 219.8 °C.

For orientation: melting point means the temperature, or range, at which the solid turns liquid.
